The source made the active and inactive calls. The rule behind the calls is not given here.
Experiments:
HEK293 = assay: Cytotoxicity against human HEK293 cells measured after 72 hrs by MTT assay; assay type: toxicity, cell-based; conditions: hek293, 72 h
HeLa = assay: Antiproliferative activity against human HeLa cells after 72 hrs by MTT assay; assay type: functional, cell-based
EA.hy 926 [1] = assay: Induction of cell cycle arrest in human EA.hy 926 cells assessed as accumulation of cells at G1-pahse at 0.1 to 40 uM measured after 72 hrs by propidium iodide staining method; assay type: functional, cell-based; conditions: dose 0.1-40 µM
EA.hy 926 [2] = assay: Effect on cell apoptosis in human EA.hy 926 cells assessed as promotion of apoptosis at 0.1 to 40 uM measured after 72 hrs by Annexin V-FITC/propidium iodide staining based flow cytometry; assay type: functional; conditions: dose 0.1-40 µM
MDA-MB-231 = assay: Antiproliferative activity against human MDA-MB-231 cells after 72 hrs by MTT assay; assay type: functional, cell-based; conditions: MDA-MB-231, 72 h
EA.hy 926 [3] = assay: Antiproliferative activity against human EA.hy 926 cells after 72 hrs by MTT assay; assay type: functional, cell-based; conditions: EA.hy 926, 72 h
A549 = assay: Antiproliferative activity against human A549 cells after 72 hrs by MTT assay; assay type: functional, cell-based; conditions: A549, 72 h

Row | IC50 (HeLa) | IC50 (MDA-MB-231) | IC50 (A549) | Compound | Activity (HEK293) | Activity (EA.hy 926 [1]) | Activity (EA.hy 926 [2]) | IC50 (EA.hy 926 [3])
1 | 15.8 µM | 35.9 µM | – | CCN(CC)c1ccc2c(-c3ccccc3C(=O)NCCCCNC(=O)CSSCC(=O)Nc3cccc(-c4cn(Cc5ccc(-c6ccc(OC)nc6)cc5)nn4)c3)c3ccc(=[N+](CC)CC)cc-3oc2c1 | Non-Toxic | Active | Active | 2.96 µM
2 | – | – | – | COc1ccc(-c2ccc(Cn3cc(-c4cccc(N)c4)nn3)cc2)cn1 | Non-Toxic | Active | Active | –
3 | 128 µM | 85 µM | 22.1 µM | CCN(CC)c1ccc2c(-c3ccccc3C(=O)NCCCCNC(=O)CSSCC(=O)n3nc(N)c4c(-c5ccc(NC(=O)Nc6cc(C)ccc6F)cc5)cccc43)c3ccc(=[N+](CC)CC)cc-3oc2c1 | Non-Toxic | Active | Active | 0.03 µM

Reference: ChEMBL document CHEMBL5131448, “Tumor-microenvironmental-response Bi-functional molecules for efficient imaging and anti-tumor activity therapy” (Eur J Med Chem, 2022)
